In patent US5962487A, “Antipicornaviral compounds and methods for their use and preparation” (Agouron Pharmaceuticals, Inc., priority 1997, dated 1999):

Tests used:
[1] = molecular target: T1, Rhinovirus 3C protease (RVP) serotype-14 (Human rhinovirus 14, UniProt P03303); test: Inhibition of Rhinovirus Protease, serotype 14 (FRET assay); format: biochemical; settings: for Ki: RVP serotype-14, 10 minute preincubation with 50 nM RVP prior to addition of substrate, read-out: INHIB (Ki); for kinact/KI: read-out: kobs/I
T1 construct: Recombinant Rhinovirus 3C proteases from serotypes 14, 16, 2 or 89 were prepared; made in house
T1 sequence (P03303 1538-1719): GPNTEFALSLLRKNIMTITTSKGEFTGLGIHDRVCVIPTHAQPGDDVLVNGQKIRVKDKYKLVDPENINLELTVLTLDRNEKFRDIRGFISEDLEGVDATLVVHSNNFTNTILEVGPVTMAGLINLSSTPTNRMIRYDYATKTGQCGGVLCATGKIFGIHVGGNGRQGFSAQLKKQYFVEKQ
Method: (§1) Stock solutions (50 mM, in DMSO) of various compounds were prepared; dilutions were in the same solvent. Recombinant Rhinovirus 3C proteases from serotypes 14, 16, 2 or 89 were prepared by the following standard chromatographic procedures: (1) ion exchange using Q Sepharose Fast Flow from Pharmacia; (2) affinity chromatography using Affi-Gel Blue from Biorad; and (3) sizing using Sephadex G-100 from Pharmacia. Assays contained 2% DMSO, 50 mM tris pH 7.6, 1 mM EDTA, a compound at the indicated concentrations, approximately 1 μM substrate, and 50-100 nM protease. For Ki determinations, the compound and the enzyme were preincubated for 10 minutes at 30° C. prior to addition of the substrate (substrate start). The kobs/I values were obtained from reactions initiated by addition of enzyme rather than substrate. RVP activity is measured in the fluorescence resonance energy transfer assay. The substrate was (N-terminal) DABCYL-(Gly-Arg-Ala-Val-Phe-Gln-Gly-Pro-Val-Gly)-EDANS. In the uncleaved peptide, the EDANS fluorescence was quenched by the proximal DABCYL moiety. When the peptide was cleaved, the quenching was relieved, and activity was measured as an increase in fluorescence signal.
(§2) In the above table, all data is for RVP serotype-14 unless otherwise noted in parentheses. All strains of human rhinovirus (HRV) were purchased from American Type Culture Collection (ATCC), except for serotype 14, which was produced from the infectious cDNA clone constructed and supplied to us by Dr. Roland Rueckert at the Institute for Molecular Virology, University of Wisconsin, Madison, Wis. The column designated INHIB represents the percent inhibition, with the concentration of the compound in μM indicated in parentheses, unless Ki was assigned as designated by (Ki), at 10 minute preincubation with 50 nM RVP prior to addition of substrate was used. The data in the column designated kobs/I was measured from progress curves in enzyme start experiments.

[2] = molecular target: T2, Rhinovirus 3C protease (RVP) serotype 2 (Human rhinovirus 2, UniProt P04936); test: Inhibition of Rhinovirus Protease, serotype 2 (FRET assay); format: biochemical; settings: enzyme start experiments, read-out: kobs/I
T2 construct: Recombinant Rhinovirus 3C proteases from serotypes 14, 16, 2 or 89 were prepared; made in house
T2 sequence (P04936 1508-1690): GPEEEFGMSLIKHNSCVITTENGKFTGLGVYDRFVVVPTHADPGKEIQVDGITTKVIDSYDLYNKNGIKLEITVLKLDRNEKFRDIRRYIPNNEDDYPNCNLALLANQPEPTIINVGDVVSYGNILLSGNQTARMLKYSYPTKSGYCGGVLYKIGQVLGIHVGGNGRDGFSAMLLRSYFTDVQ
Method: as §1, §2

[3] = molecular target: T3, Rhinovirus 3C protease (RVP) serotype 16 (Human rhinovirus 16, UniProt Q82122); test: Inhibition of Rhinovirus Protease, serotype 16 (FRET assay); format: biochemical; settings: enzyme start experiments, read-out: kobs/I
T3 construct: Recombinant Rhinovirus 3C proteases from serotypes 14, 16, 2 or 89 were prepared; made in house
T3 sequence (Q82122 1511-1693): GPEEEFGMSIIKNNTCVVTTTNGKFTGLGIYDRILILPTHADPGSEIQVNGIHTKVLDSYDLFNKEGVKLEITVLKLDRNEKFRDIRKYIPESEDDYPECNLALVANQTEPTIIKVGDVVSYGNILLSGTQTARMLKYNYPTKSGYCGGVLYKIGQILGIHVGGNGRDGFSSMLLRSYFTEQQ
Method: as §1, §2

HRV-14 = test: Antirhinoviral HI-HeLa Cell Culture Assay (cell protection, XTT), HRV-14; format: cell-based, human rhinovirus; settings: for TI: CC50/EC50, HRV serotype-14, 2880 min; for EC50: Rhinovirus B, HRV14, 48 h, HRV serotype-14 infected HI-HeLa cells, XTT, two days
Method: In the Cell Protection Assay, the ability of compounds to protect cells against HRV infection was measured by the XTT dye reduction method. This method is described in O. S. Weislow, R. Kiser, D. L. Fine, J. Bader, R. H. Shoemaker, and M. R. Boyd, J. Natl. Cancer Inst. 1989, 81, 577-586, which document is entirely incorporated herein by reference.
(§3) HI-HeLa cells were infected with HRV-14 (unless otherwise noted) at a multiplicity of infection (m.o.i.) of 0.13 (virus particles/cell) or mock-infected with medium only. Infected or mock-infected cells were resuspended at 8×10^5 cells per mL and incubated with appropriate concentrations of compounds of formulas I and II. Two days later, XTT/PMS was added to test plates, and the amount of formazan produced was quantified spectrophotometrically at 450/650 nm. The EC50 was calculated as the concentration of compound that increased the percentage of formazan production in compound-treated, virus-infected cells to 50% of that produced by compound-free mock-infected cells. The 50% cytotoxic dose (CC50) was calculated as the concentration of compound that decreased the percentage of formazan produced in compound-treated, mock-infected cells to 50% of that produced in compound-free, mock-infected cells. The therapeutic index (TI) was calculated by dividing the CC50 by the EC50.
(§4) All strains of human rhinovims (HRV) for use in this assay were purchased from American Type Culture Collection (ATCC), except for HRV serotype-14, which was produced from the infectious cDNA clone, constructed and supplied to us by Dr. Roland Rueckert at the Institute for Molecular Virology, University of Wisconsin, Madison, Wis. HRV stocks were propagated, and antiviral assays were performed in HI-HeLa (ATCC). Cells were grown in Minimal Essential Medium, available from Life Technologies, with 10% fetal bovine serum.
The compounds were tested against control compounds WIN 51711, WIN 52084, and WIN 54954, all obtained from Sterling-Winthrop Pharmaceuticals, and control compound Pirodavir, obtained from Janssen Pharmaceuticals. Antiviral data obtained for the test compounds are shown in Table 2 where all data are for HRV serotype-14 unless otherwise noted in parentheses.

in vitro = format: cell-based; settings: human, hi-hela cells
Method: as §3, §4

SMILES | Ki [1] | kinact/KI [1] | kinact/KI [2] | kinact/KI [3] | TI (HRV-14) | EC50 (HRV-14) | CC50 at 48 h (in vitro)
CCOC(=O)/C=C/[C@H](CCC(N)=O)NC(=O)[C@H](Cc1ccccc1)N(C)C(=O)[C@H](CC(C)C)NC(=O)SCc1ccccc1 [Compound 15, Ethyl-3-(Benzylthiocarbonyl-L-Leu-L-N-Me-Phe-L-Gln)-E-Propenoate] | 2.5 µM | 36400 M⁻¹ s⁻¹ | 3500 M⁻¹ s⁻¹ | 5600 M⁻¹ s⁻¹ | 192 | 0.26 µM | 50.1 µM
CCOC(=O)/C(C)=C/[C@H](CCC(N)=O)NC(=O)[C@H](Cc1ccc(C)cc1)N(C)C(=O)[C@H](CCc1ccccc1)NC(=O)SCc1ccccc1 [Compound 14, Ethyl-2-Methyl-3-[Benylthiocarbonyl-L-hPhe-L-N-Me-(4-Me)-Phe-L-Gln]-E-Propenoate] | 0.8 µM | 56400 M⁻¹ s⁻¹ | 800 M⁻¹ s⁻¹ | 1800 M⁻¹ s⁻¹ | 49 | 0.32 µM | 15.8 µM
CCOC(=O)/C(C)=C/[C@H](CCC(N)=O)NC(=O)[C@H](Cc1ccccc1)N(C)C(=O)[C@H](CC(C)C)NC(=O)SCc1ccccc1 [Compound 16, Ethyl-2-Methyl-3-(Benzylthiocarbonyl-L-Leu-L-N-Me-Phe-L-Gln)-E-Propenoate] | 12 µM | 8300 M⁻¹ s⁻¹ | 600 M⁻¹ s⁻¹ | 1000 M⁻¹ s⁻¹ | 19 | 1.7 µM | 32 µM
CCOC(=O)/C=C/[C@H](CCC(N)=O)NC(=O)[C@H](Cc1ccc(C)cc1)N(C)C(=O)[C@H](CCc1ccccc1)NC(=O)SCc1ccccc1 [Compound 13, Ethyl-3-[Benzylthiocarbonyl-L-hPhe-L-N-Me-(4-Me-Phe)-L-Gln] -E-Propenoate] |  | 356000 M⁻¹ s⁻¹ | 3980 M⁻¹ s⁻¹ | 11700 M⁻¹ s⁻¹ | 148 | 0.12 µM | 17.8 µM
CCOC(=O)/C=C/[C@H](CCC(N)=O)NC(=O)[C@@H]1CCCN1C(=O)[C@H](CC(C)C)NC(=O)SCC [Compound 24, Ethyl-3-(Ethythiocarbonyl-L-Leu-L-Pro-L-Gln)-E-Propenoate] | 8 µM | 22000 M⁻¹ s⁻¹ | 7100 M⁻¹ s⁻¹ | 9300 M⁻¹ s⁻¹ | > 10 | 10 µM | > 100 µM
CCOC(=O)/C=C/[C@H](CCC(N)=O)NC(=O)[C@H](Cc1ccccc1)N(C)C(=O)[C@@H](NC(=O)SCC)C(C)C [Compound 34, Ethyl-3-(Ethylthiocarbonyl-L-Val-L-N-Me-Phe-L-Gln)-E-Propenoate] |  | 13400 M⁻¹ s⁻¹ | 940 M⁻¹ s⁻¹ | 2060 M⁻¹ s⁻¹ | > 312 | 0.32 µM | > 100 µM
CCOC(=O)/C=C/[C@H](CCC(N)=O)NC(=O)[C@@H]1CCCCN1C(=O)[C@H](CC(C)C)NC(=O)OCc1ccccc1 [Compound 25, Ethyl-3-[CBZ-L-Leu-L-Pip-L-Gln]-E-Propenoate] |  | 1470 M⁻¹ s⁻¹ | 1280 M⁻¹ s⁻¹ | 770 M⁻¹ s⁻¹ | > 23 | 14 µM | > 320 µM
CCOC(=O)/C=C/[C@H](CCC(N)=O)NC(=O)[C@@H]1CCc2ncc(NC(=O)OCc3ccccc3)c(=O)n21 [Compound 37, Ethyl-3-[(S)-3-(CBZ-Amino)4-Oxo-4,6,7,8-Tetrahydropyrrolo [1,2-α]Pyrimidine-6-L-Gln]-E-Propenoate] |  | 12400 M⁻¹ s⁻¹ | 2500 M⁻¹ s⁻¹ | 4000 M⁻¹ s⁻¹ | > 11 | 8.9 µM | > 100 µM
CCOC(=O)/C=C/[C@H](CCC(N)=O)NC(=O)[C@H](Cc1ccccc1)N(C)C(=O)[C@@H](NC(=O)SC1CCCC1)C(C)C [Compound 35, Ethyl-3-(Cyclopentylthiocarbonyl-L-Val-L-N-Me-PHe-L-Gln-)-E-Propenoate] |  | 22500 M⁻¹ s⁻¹ | 1600 M⁻¹ s⁻¹ | 3480 M⁻¹ s⁻¹ | > 526 | 0.19 µM | > 100 µM
CCOC(=O)/C=C/[C@H](CCC(N)=O)NC(=O)[C@H](Cc1ccc(OC)cc1)N(C)C(=O)[C@H](CC(C)C)NC(=O)OCc1ccccc1 [Compound 3, Ethyl-3-[CBZ-L-Leu-L-N-Me-(OMe)-Tyr-L-Gln]-E-Propenoate] | 12 µM | 16600 M⁻¹ s⁻¹ | 292 M⁻¹ s⁻¹ | 929 M⁻¹ s⁻¹ | 232 | 0.18 µM | 41.7 µM
CCOC(=O)/C=C/[C@H](CCC(N)=O)NC(=O)C1CNCCN1C(=O)[C@H](CC(C)C)NC(=O)OCc1ccccc1 (mixture of isomers) [Compound 27, Ethyl-3-(CBZ-L-Leu-DL-Pipz-L-Gln)-E-Propenoate] |  | 102 M⁻¹ s⁻¹ | 87 M⁻¹ s⁻¹ | 90 M⁻¹ s⁻¹ |  | > 320 µM | > 320 µM
CCSC(=O)N[C@@H](CC(C)C)C(=O)N(C)[C@@H](Cc1ccccc1)C(=O)N[C@H](/C=C/C(=O)N(C)OC)CCC(N)=O [Compound 36, N-Methoxy-N-Methyl-3-(Ethylthiocarbonyl-L-Leu-L-N-Me-Phe-L-Gln)-E-Propenamide] |  | 2000 M⁻¹ s⁻¹ | 400 M⁻¹ s⁻¹ | 750 M⁻¹ s⁻¹ | > 9 | 11.2 µM | > 100 µM
